Data reported in US11964984B2, “TXNIP-TRX complex inhibitors and methods of using the same” (CITY OF HOPE, priority 2020, dated 2024).

Legend:
TXNIP mRNA [1] = experiment: TXNIP mRNA levels in murine MIN6 pancreatic beta cells (RT-PCR); assay type: cell-based, mouse; details: 25 mM glucose, 72 hours
Experimental: FIGS. 4A-4B. […] MIN6 cells were cultured under 25 mM glucose with C30 and C38 at the indicated concentrations for 72 hours. Total RNA was prepared. RT-PCR was performed and data shown are the mean±SEM from triplicates. Statistical analysis was performed for each column vs. HG DMSO using one-way ANOVA: *p<0.0001. […] MIN6 cells were cultured under 25 mM glucose and treated with C30 and C38 at the indicated concentrations for 72 hours. Total RNA was prepared. RT-PCR was performed and data shown are the mean±SEM from triplicates. Statistical analysis was performed for each column vs. HG DMSO using one-way ANOVA: *p<0.0001.
To ascertain the relevance to pancreatic beta cells, we tested the effects of the lead compounds on key target gene mRNA levels in murine MIN6 pancreatic beta cells.
RNA extraction and quantitative RT-PCR. RNA was extracted using the Direct-zol™ RNA MiniPrep Plus (Zymo Research). Reverse transcription of RNA samples into cDNA was performed using the GeneAmp RNA PCR Kit (Applied Biosystems), dNTP (from Roche Applied Science), Rnase inhibitor, MULV Reverse Transcriptase and Random hexamers reagent (all from Invitrogen). Diluted cDNA was quantified using real-time PCR performed with Power SYBR Green qPCR MasterMix (Applied Biosystem) and 7500 real-time PCR system (Applied Biosystems). The HPRT1 gene was used as an internal control.

human islets = experiment: BCL2/BAX ratio (apoptosis marker) in human islets under high glucose plus cytokines; assay type: cell-based; details: 25 mM glucose + TNFα, IL1β, IFNγ, 40 hours
Experimental: FIGS. 18A-18B. C30 and C38 compounds protect cells from apoptosis in human islets. 100 IEQ human islets (Hu 1178) were cultured in PIM(R)© containing NG (5.8 mM glucose) or HG (25 mM glucose), and TNFα (20 ng/ml), IL1β (20 ng/ml), IFNγ (200 ng/ml) for 40 hours with or without lead compounds. Total RNA was prepared and RT PCR performed. FIG. 18A: BCL2/BAX ratios are the mean±SEM from triplicates. Statistical analysis was performed for each column vs. HG, 3 cytokines using one-way ANOVA: *p<0.002. FIG. 18B: TXNIP relative mRNA levels. Data shown are the mean±SEM from triplicates. Statistical analysis was performed for each column vs. HG, 3 cytokines using one-way ANOVA: **p<0.0001.
In T1D, β-cell death involves necrosis and apoptosis. BCL2 limits BAX/BAK oligomerization, to impede the release of several apoptogenic molecules from mitochondria. Also, BCL2 binds to and inactivates BAX and other pro-apoptotic proteins, thereby inhibiting apoptosis. BAX and BAK disrupt the integrity of the mitochondrial outer membrane to promote apoptotic cell death. As such, the BCL2/BAX ratio is used as a marker of cell susceptibility to apoptosis. High levels of this ratio can serve as an indicator of the resistance of human cells to apoptosis. […]

TXNIP mRNA [2] = experiment: TXNIP mRNA in CD14+ monocytes from type 2 diabetic donors (RT-qPCR); assay type: cell-based, human; details: CD14+ monocytes of T2D donors, 5 uM, 45 hours, ex vivo
Experimental: FIG. 20. Several lead compounds suppress TXNIP mRNA in T2D monocytes. CD14^+ monocytes were isolated from T2D patient peripheral blood mononuclear cells (PBMCs) and cultured in RPMI 1640 medium with 5 uM of C30 or C38 for 45 hours. Total RNA was collected. RT-PCR was performed in triplicates and data shown are the mean±SEM. Statistical analysis was performed using one-way ANOVA: *p<0.0001.
Anti-inflammatory (protective) effects of lead compounds in monocytes isolated from peripheral blood obtained from type 2 diabetic subjects. In accordance with an approved IRB protocol and our published methods, we isolated CD14+ monocytes from the peripheral blood of two donors with documented type 2 diabetes (T2D). These monocytes were cultured in vitro with vehicle, 5 uM C30 or C38, and levels of human TXNIP transcript assessed by RT-qPCR.

| SMILES | TXNIP mRNA levels (TXNIP mRNA [1]) | BCL2/BAX ratio (human islets) | expression of TXNIP (TXNIP mRNA [2]) |
| --- | --- | --- | --- |
| COc1cc(N2CC[C@@H](c3ccc4ccccc4c3)[C@H](O)C2)nc(N)n1 [Compound C30] | decreased TXNIP mRNA levels | significantly increased BCL2/BAX ratios | can inhibit the expression of TXNIP |
| c1ccc(CCNc2ncnc3c2oc2ccccc23)cc1 [Compound C38] | decreased TXNIP mRNA levels | significantly increased BCL2/BAX ratios | can inhibit the expression of TXNIP |
